Measurements reported in patent US20250025443A1, “COMPOUNDS AND METHODS FOR TREATING CORONA VIRUSES” (CLEAR CREEK BIO, INC., priority 2021, published 2025).

target: SARS-CoV-2 Papain-Like Protease (PLpro) (Severe acute respiratory syndrome coronavirus 2 (2019-nCoV) (SARS-CoV-2), UniProt P0DTD1); experiment: biochemical; settings: PLpro enzymatic fluorescence assay; class symbols; read-out: PLpro IC50

| Compound | IC50 [nM] |
| --- | --- |
| COc1cc(C2(NC(=O)c3cc(OC[C@H]4CCN4)ccc3C)CC2)c2cccnc2c1 [Compound 554, (R)-5-(Azetidin-2-ylmethoxy)-N-(1-(7-methoxyquinolin-5-yl)cyclopropyl)-2-methylbenzamide] | < 100 |
| COc1cc(C2(NC(=O)c3cc(OC[C@@H]4CCN4C)c(O)cc3C)CC2)c2cccnc2c1 [Compound 750, (S)-4-Hydroxy-N-(1-(7-methoxyquinolin-5-yl)cyclopropyl)-2-methyl-5-((1-methylazetidin-2-yl)methoxy)benzamide] | < 100 |
| C=Cc1cc(C2(NC(=O)c3cc(OC[C@@H]4CCCN4C)ccc3C)CC2)c2cccnc2c1 [Compound 717, (S)-2-Methyl-5-((1-methylpyrrolidin-2-yl)methoxy)-N-(1-(7-vinylquinolin-5-yl)cyclopropyl)benzamide] | < 100 |
| Cc1ccc(OC[C@@H]2CCN2C)cc1C(=O)NC1(c2cc(-c3sccc3Cl)cc3ncccc23)CC1 [Compound 668, (S)-N-(1-(7-(3-Chlorothiophen-2-yl)quinolin-5-yl)cyclopropyl)-2-methyl-5-((1-methylazetidin-2-yl)methoxy)benzamide] | < 100 |
| Cc1ccc(OC[C@@H]2CCN2C)cc1C(=O)NC1(c2cc(C(C)O)cc3ncccc23)CC1 (stereo partly drawn) [Compound 676, N-(1-(7-(1-Hydroxyethyl)quinolin-5-yl)cyclopropyl)-2-methyl-5-(((S)-1-methylazetidin-2-yl)methoxy)benzamide] | < 100 |
| Cc1ccc(OC[C@@H]2CCN2C)cc1C(=O)NC1(c2cc(-n3cccn3)cc3ncccc23)CC1 [Compound 619, (S)-N-(1-(7-(1H-Pyrazol-1-yl)quinolin-5-yl)cyclopropyl)-2-methyl-5-((1-methylazetidin-2-yl)methoxy)benzamide] | < 100 |
| COc1cc(C2(NC(=O)c3cc(OC[C@@H]4CC[C@@H]5CNCCN54)ccc3C)CC2)c2cccnc2c1 [Compound 789] | < 100 |
| Cc1ccc(OC[C@@H]2CCN2C)cc1C(=O)NC1(c2cc(-c3cncc(N4CCOCC4)c3)cc3ncccc23)CC1 [Compound 699, (S)-2-Methyl-5-((1-methylazetidin-2-yl)methoxy)-N-(1-(7-(5-morpholinopyridin-3-yl)quinolin-5-yl)cyclopropyl)benzamide] | < 100 |
| Cc1ccc(OC[C@@H]2CCN2C)cc1C(=O)NC1(c2cc(N3CCC3)cc3ncccc23)CC1 [Compound 723, (S)—N-(1-(7-(Azetidin-1-yl)quinolin-5-yl)cyclopropyl)-2-methyl-5-((1-methylazetidin-2-yl)methoxy)benzamide] | < 100 |
| Cc1ccc2c(C3(NC(=O)c4cc(OC[C@@H]5CCN5C)ccc4C)CC3)cc(O)cc2n1 [Compound 809, (S)-N-(1-(7-Hydroxy-2-methylquinolin-5-yl)cyclopropyl)-2-methyl-5-((1-methylazetidin-2-yl)methoxy)benzamide] | < 100 |
| Cc1ccc(OC[C@@H]2CCN2)cc1C(=O)NC1(c2cc(-c3ccnn3C)cc3ncccc23)CC1 [Compound 649, (S)-5-(Azetidin-2-ylmethoxy)-2-methyl-N-(1-(7-(1-methyl-1H-pyrazol-5-yl)quinolin-5-yl)cyclopropyl)benzamide] | < 100 |
| C=Cc1cc2c(c(C3(NC(=O)c4cc(OC[C@@H]5CCN5C)ccc4C)CC3)c1)CCCN2 [Compound 785, (S)-2-Methyl-5-((1-methylazetidin-2-yl)methoxy)-N-(1-(7-vinyl-1,2,3,4-tetrahydroquinolin-5-yl)cyclopropyl)benzamide] | < 100 |
| Cc1ccc(OC[C@@H](C)N)cc1C(=O)NC1(c2cc(Br)cc3ccccc23)CC1 [Compound 540, (R)-5-(2-Aminopropoxy)-N-(1-(3-bromonaphthalen-1-yl)cyclopropyl)-2-methylbenzamide] | < 100 |
| [2H]C([2H])(Oc1ccc(C)c(C(=O)NC2(c3cc(OC)cc4ncccc34)CC2)c1)[C@@H]1CCN1C [Compound 797, (S)-N-(1-(7-Methoxyquinolin-5-yl)cyclopropyl)-2-methyl-5-((1-methylazetidin-2-yl)methoxy-d2)benzamide] | < 100 |
| Cc1ccc2c(C3(NC(=O)c4cc(OC[C@@H]5CCN5C)ccc4C)CC3)cc(OCF)cc2n1 [Compound 823, (S)—N-(1-(7-(Fluoromethoxy)-2-methylquinolin-5-yl)cyclopropyl)-2-methyl-5-((1-methylazetidin-2-yl)methoxy)benzamide] | < 100 |
| Cc1ccc(OC[C@@H]2CCN2C)cc1C(=O)NC1(c2cc(-c3ccc(C(=O)N4CCCC4)s3)cc3ncccc23)CC1 [Compound 767, (S)-2-Methyl-5-((1-methylazetidin-2-yl)methoxy)-N-(1-(7-(5-(pyrrolidine-1-carbonyl)thiophen-2-yl)quinolin-5-yl)cyclopropyl)benzamide] | > 5000 |
| Cc1ccc(OC[C@@H]2CCN2)cc1C(=O)NC1(c2cc(-c3cccs3)cc3ncccc23)CC1 [Compound 608, (S)-5-(Azetidin-2-ylmethoxy)-2-methyl-N-(1-(7-(thiophen-2-yl)quinolin-5-yl)cyclopropyl)benzamide] | < 100 |

same assay, conditions: SARS-CoV-2 PLpro enzymatic fluorescence assay; read-out: PLpro IC50

| Compound | IC50 [nM] |
| --- | --- |
| CCCOc1cc(C2(NC(=O)c3cc(OCC4CCN4C)ccc3C)CC2)c2ccccc2c1 (stereo not drawn) [Compound 474, 2-Methyl-5-((1-methylazetidin-2-yl)methoxy)-N-(1-(3-propoxynaphthalen-1-yl)cyclopropyl)benzamide] | < 100 |
| CC(c1cccc2ccccc12)N1CCC(C(=O)NCc2cccc(F)c2)C1 (stereo not drawn) [Compound 144, N-(3-Fluorobenzyl)-1-(1-(naphthalen-1-yl)ethyl)pyrrolidine-3-carboxamide] | > 5000 |
| Cc1cc2ccc(=O)[nH]c2cc1C(=O)N[C@H](C)c1cccc2ccccc12 [Compound 167, (R)-6-Methyl-N-(1-(naphthalen-1-yl)ethyl)-2-oxo-1,2-dihydroquinoline-7-carboxamide] | > 5000 |
| Cc1ccc(OCCN)cc1C(=O)N(C)C1(c2cccc3ccccc23)CC1 [Compound 211, 5-(2-Aminoethoxy)-N,2-dimethyl-N-(1-(naphthalen-1-yl)cyclopropyl)benzamide] | > 5000 |
| Cc1cc2nc[nH]c2cc1C(=O)N[C@H](C)c1cccc(-c2ccc(CN3CCCC3)s2)c1 [Compound 126, (R)-5-Methyl-N-(1-(3-(5-(pyrrolidin-1-ylmethyl)thiophen-2-yl)phenyl)ethyl)-1H-benzo[d]imidazole-6-carboxamide] | 1000 to 5000 |
| COc1cc(C2(NC(=O)c3cc(OCCN(C)C)ccc3C)CC2)c2cccnc2c1 [Compound 434, 5-(2-(Dimethylamino)ethoxy)-N-(1-(7-methoxyquinolin-5-yl)cyclopropyl)-2-methylbenzamide] | < 100 |
| Cc1ccc(OCCN(C)C)cc1C(=O)NC1(c2cccc(C3=CCCC3)c2)CC1 [Compound 264, N-(1-(3-(Cyclopent-1-en-1-yl)phenyl)cyclopropyl)-5-(2-(dimethylamino)ethoxy)-2-methylbenzamide] | 1000 to 5000 |
| Cc1ccc(OCCN2CCC(F)(F)CC2)cc1C(=O)NC1(c2cccc3ccccc23)CC1 [Compound 284, 5-(2-(4,4-Difluoropiperidin-1-yl)ethoxy)-2-methyl-N-(1-(naphthalen-1-yl)cyclopropyl)benzamide] | 100 to 1000 |
| Cc1ccc(OCCN(C)C)cc1C(=O)NC1(c2cn(-c3ccccc3)c3ccccc23)CC1 [Compound 395, 5-(2-(Dimethylamino)ethoxy)-2-methyl-N-(1-(1-phenyl-1H-indol-3-yl)cyclopropyl)benzamide] | < 100 |
| Cc1ccc(OCCN(C)C)cc1C(=O)NC1(c2cccc(-c3ccccc3)c2)CC1 [Compound 291, N-(1-([1,1′-Biphenyl]-3-yl)cyclopropyl)-5-(2-(dimethylamino)ethoxy)-2-methylbenzamide] | 100 to 1000 |
| Cc1ccc(O[C@@H]2CC[C@@H]2N)cc1C(=O)NC1(c2cccc3ccccc23)CC1 (racemic) [Compound 406, rac-5-((1S,2R)-2-Aminocyclobutoxy)-2-methyl-N-(1-(naphthalen-1-yl)cyclopropyl)benzamide] | < 100 |
| Cc1ccc(OCC2CCN2)cc1C(=O)NC1(c2cccc3ccccc23)CC1 (stereo not drawn) [Compound 274, 5-(Azetidin-2-ylmethoxy)-2-methyl-N-(1-(naphthalen-1-yl)cyclopropyl)benzamide] | < 100 |
| COCc1cc2cc(C)c(C(=O)NC3(c4cccc5ccccc45)CC3)cc2[nH]1 [Compound 240, 2-(Methoxymethyl)-5-methyl-N-(1-(naphthalen-1-yl)cyclopropyl)-1H-indole-6-carboxamide] | 100 to 1000 |
| Cc1cc2nc[nH]c2cc1C(=O)N[C@H](C)c1cccc(-c2ccc(CN[C@H]3CC[C@@H](O)C3)s2)c1 [Compound 134, N-((R)-1-(3-(5-((((1S,3R)-3-hydroxycyclopentyl)amino)methyl)thiophen-2-yl)phenyl)ethyl)-5-methyl-1H-benzo[d]imidazole-6-carboxamide] | 100 to 1000 |
| Cc1ccc(OC[C@@H]2CCN2C)cc1C(=O)NC1(c2cccc3ccccc23)CC1 [Compound 310, (S)-2-Methyl-5-((1-methylazetidin-2-yl)methoxy)-N-(1-(naphthalen-1-yl)cyclopropyl)benzamide] | < 100 |
| Cc1cc2cc(CNCc3ccccc3)[nH]c2cc1C(=O)NC1(c2cccc3ccccc23)CC1 [Compound 229, 2-((Benzylamino)methyl)-5-methyl-N-(1-(naphthalen-1-yl)cyclopropyl)-1H-indole-6-carboxamide] | < 100 |
| Cc1ccc(OCCN(C)C)cc1C(=O)NC1(c2ccccc2C)CC1 [Compound 282, 5-(2-(Dimethylamino)ethoxy)-2-methyl-N-(1-(o-tolyl)cyclopropyl)benzamide] | 1000 to 5000 |
| Cc1ccc(NC2CNC2)cc1C(=O)NC1(c2cccc(-c3cccs3)c2)CC1 [Compound 169, 5-(Azetidin-3-ylamino)-2-methyl-N-(1-(3-(thiophen-2-yl)phenyl)cyclopropyl)benzamide] | 100 to 1000 |
| Cc1cc2cc(CN)[nH]c2cc1C(=O)NC1(c2ccc3ccccc3c2)CC1 [Compound 248, 2-(Aminomethyl)-5-methyl-N-(1-(naphthalen-2-yl)cyclopropyl)-1H-indole-6-carboxamide] | 1000 to 5000 |
